{
  "source": "PubChem BioAssay (NCI)",
  "tested_on": "MDA-MB-468 breast",
  "assay": "NCI tumour cell line growth inhibition, 48 h",
  "note": "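Grown in 96-well plates, cells were treated for 48 hours with each compound at five concentrations. Insufficient inhibition: endpoint recorded as highest concentration tested. At the GI50, growth is halved. TGI denotes the concentration required for complete inhibition of growth.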",
  "data": [
    {"smiles": "COc1ccc(C2CC(n3nnnc3-c3ccccc3)=NN2)cc1", "note": "(configuration not stated)", "values": [
      {"measurement": "GI50", "value": 3980, "unit": "nM"},
      {"measurement": "TGI", "value": 47600, "unit": "nM"}
    ]},
    {"smiles": "CCn1c2ccc(/C=N/OCCCN(C)C)cc2c2cc(/C=N/OCCCN(C)C)ccc21", "values": [
      {"measurement": "GI50", "value": 1380, "unit": "nM"},
      {"measurement": "TGI", "value": 3050, "unit": "nM"}
    ]},
    {"smiles": "CCC(C)[C@H]1OC(=O)[C@H](C(C)C)N(C)C(=O)[C@@H](C(C)C)OC(=O)[C@H](C(C)C)N(C)C(=O)[C@@H](C(C)CC)OC(=O)[C@H](C(C)C)N(C)C1=O", "note": "(some centres not stated)", "values": [
      {"measurement": "GI50", "value": 440, "unit": "nM"},
      {"measurement": "TGI", "value": 1350, "unit": "nM"}
    ]},
    {"smiles": "NC(=O)c1ccc(C2C3=C(CCCC3=O)OC3=C2C(=O)c2ccccc2C3=O)cc1", "note": "(configuration not stated)", "values": [
      {"measurement": "GI50", "value": 201, "unit": "nM"},
      {"measurement": "TGI", "value": 649, "unit": "nM"}
    ]},
    {"smiles": "CCCCCCN(CCCCCC)CC(O)c1ccc2c3c(cccc13)CC2", "note": "(configuration not stated)", "values": [
      {"measurement": "GI50", "value": 3430, "unit": "nM"},
      {"measurement": "TGI", "value": 14400, "unit": "nM"}
    ]},
    {"smiles": "O=C1CCCN1CC#CCN1CCCC1", "values": [
      {"measurement": "GI50", "value": "> 100000", "unit": "nM"},
      {"measurement": "TGI", "value": "> 100000", "unit": "nM"}
    ]},
    {"smiles": "CC1=C2C(=O)[C@](C)(CO)C=C2C(=O)[C@](C)(O)C12CC2", "values": [
      {"measurement": "GI50", "value": 1520, "unit": "nM"},
      {"measurement": "TGI", "value": 3160, "unit": "nM"}
    ]},
    {"smiles": "COc1cc(Cn2c(-c3nonc3N)nc3ccccc32)ccc1C", "values": [
      {"measurement": "GI50", "value": 228, "unit": "nM"}
    ]},
    {"smiles": "CN(C)C(=O)O[C@@H]1CN[C@@H](C#Cc2cc3ncnc(Nc4ccc(OCc5cccc(F)c5)c(Cl)c4)c3s2)C1", "values": [
      {"measurement": "GI50", "value": 1740, "unit": "nM"},
      {"measurement": "TGI", "value": 12700, "unit": "nM"}
    ]},
    {"smiles": "Cc1cc(-c2nnc3n2CCCCC3)c(C)n1-c1ccc(Cl)c(Cl)c1", "values": [
      {"measurement": "GI50", "value": 2660, "unit": "nM"},
      {"measurement": "TGI", "value": 14000, "unit": "nM"}
    ]},
    {"smiles": "Cc1ccc(NC(=O)Cn2c(Br)nc3c2c(=O)n(C)c(=O)n3C)cc1", "values": [
      {"measurement": "GI50", "value": 10100, "unit": "nM"},
      {"measurement": "TGI", "value": 23200, "unit": "nM"}
    ]},
    {"smiles": "Cc1c2ccc(N(C)c3ccnc(Nc4cccc(S(N)(=O)=O)c4)n3)cc2nn1C", "values": [
      {"measurement": "GI50", "value": 8210, "unit": "nM"},
      {"measurement": "TGI", "value": "> 23500", "unit": "nM"}
    ]},
    {"smiles": "CSc1ccc(/C=C2\\C=C(CC(=O)NCc3ccc(C(=O)c4ccccc4)cc3)c3cc(F)ccc32)cc1", "values": [
      {"measurement": "GI50", "value": 19.9, "unit": "nM"},
      {"measurement": "TGI", "value": 7400, "unit": "nM"}
    ]},
    {"smiles": "CC(C)[C@H]1C(=O)N[C@@H](CCCN=C(N)N)C(=O)NCC(=O)N[C@@H](CC(=O)O)C(=O)N[C@H](Cc2ccccc2)C(=O)N1C", "values": [
      {"measurement": "GI50", "value": 403, "unit": "nM"},
      {"measurement": "TGI", "value": 2180, "unit": "nM"}
    ]},
    {"smiles": "N#C[C@@H]1C(n2ccc(N)nc2=O)O[C@H](CO)[C@H]1O", "note": "(some centres not stated)", "values": [
      {"measurement": "GI50", "value": "> 73100", "unit": "nM"},
      {"measurement": "TGI", "value": "> 100000", "unit": "nM"}
    ]},
    {"smiles": "COC(=O)CCCCCN=Cc1c(O)c(O)c(C(C)C)c2cc(C)c(-c3c(C)cc4c(C(C)C)c(O)c(O)c(C=NCCCCCC(=O)OC)c4c3O)c(O)c12", "values": [
      {"measurement": "GI50", "value": 1970, "unit": "nM"},
      {"measurement": "TGI", "value": 12900, "unit": "nM"}
    ]},
    {"smiles": "COC(=O)CCC1=C(C)/C(=C/c2[nH]c(-c3ccc[nH]3)cc2OC)N=C1C", "values": [
      {"measurement": "GI50", "value": 1140, "unit": "nM"},
      {"measurement": "TGI", "value": 3180, "unit": "nM"}
    ]},
    {"smiles": "CCC(c1cccc(O)c1)C(CC)c1cccc(O)c1", "note": "(configuration not stated)", "values": [
      {"measurement": "GI50", "value": 28, "unit": "nM"},
      {"measurement": "TGI", "value": 4370, "unit": "nM"}
    ]},
    {"smiles": "CCOc1c(Cl)cc(CNC(C)C(O)c2ccccc2)cc1OC", "note": "(configuration not stated)", "values": [
      {"measurement": "GI50", "value": 16700, "unit": "nM"},
      {"measurement": "TGI", "value": 33200, "unit": "nM"}
    ]},
    {"smiles": "COc1ccc(CN2c3ccccc3CCc3ccccc32)cc1F", "values": [
      {"measurement": "GI50", "value": 399, "unit": "nM"},
      {"measurement": "TGI", "value": "> 100000", "unit": "nM"}
    ]},
    {"smiles": "C=C(C)C(=O)O[C@H]1C[C@@]2(C)OC(=CC2=O)/C(C)=C\\[C@H]2OC(=O)C(=C)[C@H]12", "values": [
      {"measurement": "GI50", "value": 622, "unit": "nM"},
      {"measurement": "TGI", "value": 1560, "unit": "nM"}
    ]},
    {"smiles": "CCN(CCNc1ccc(C)c2sc3ccccc3c(=O)c12)CC(C)(C)O", "values": [
      {"measurement": "GI50", "value": 1740, "unit": "nM"},
      {"measurement": "TGI", "value": 5030, "unit": "nM"}
    ]},
    {"smiles": "COc1cc2nc(-c3ccc(C(F)(F)F)cc3)cc(OCCCN3CCCCC3)c2cc1OC", "values": [
      {"measurement": "GI50", "value": 1030, "unit": "nM"},
      {"measurement": "TGI", "value": 3290, "unit": "nM"}
    ]},
    {"smiles": "COc1cc(S(C)(=O)=O)ccc1Nc1nc2ccc(-c3ccc(NC(=O)[C@H](C)c4ccc(F)cc4)cc3)cn2n1", "values": [
      {"measurement": "GI50", "value": 68600, "unit": "nM"},
      {"measurement": "TGI", "value": "> 100000", "unit": "nM"}
    ]},
    {"smiles": "CC(=O)Nc1ccc(NC(=O)Nc2cccc(-c3nc(-c4ccc(NC(=O)c5cccs5)cc4Cl)no3)c2)cc1C(F)(F)F", "values": [
      {"measurement": "GI50", "value": 449, "unit": "nM"},
      {"measurement": "TGI", "value": 1730, "unit": "nM"}
    ]},
    {"smiles": "Cn1cc(CNCC2CCN(c3ncc(C(=O)NO)cn3)CC2)c2ccccc21", "values": [
      {"measurement": "GI50", "value": "< 10", "unit": "nM"},
      {"measurement": "TGI", "value": 476, "unit": "nM"}
    ]},
    {"smiles": "CNC(=O)c1cc(-n2ccc3cc(NC(=O)Nc4ccc(N5CCOCC5)c(C(F)(F)F)c4)ccc32)ccn1", "values": [
      {"measurement": "GI50", "value": 12800, "unit": "nM"},
      {"measurement": "TGI", "value": "> 33300", "unit": "nM"}
    ]},
    {"smiles": "CCN(CC)CCCC(C)Nc1c2ccc(C)cc2nc2ccc(OC)cc12", "note": "(configuration not stated)", "values": [
      {"measurement": "GI50", "value": 1280, "unit": "nM"},
      {"measurement": "TGI", "value": 2840, "unit": "nM"}
    ]},
    {"smiles": "COc1ccc(-c2cn[nH]c2-c2cc(OC)c3c(c2)OCCO3)cc1", "values": [
      {"measurement": "GI50", "value": 115, "unit": "nM"},
      {"measurement": "TGI", "value": 2760, "unit": "nM"}
    ]}
  ]
}
